Common to all, as to assay type: cell-based
For assay [1], the system named is nasopharyngeal carcinoma cell CNE-2. Briefly: MTT anti-tumor experiment in vitro, inhibition of nasopharyngeal carcinoma cell CNE-2. To be noted: Homo sapiens, 100 μg/mL, 48 hours, read-out: Inhibition rate of nasopharyngeal carcinoma cells (%) CNE-2.
In assay [2] the test system is nasopharyngeal carcinoma cell CNE-1. Briefly: MTT anti-tumor experiment in vitro, inhibition of nasopharyngeal carcinoma cell CNE-1. The note with it: 100 μg/mL, 48 hours, read-out: Inhibition rate of nasopharyngeal carcinoma cells (%) CNE-1.
The subject of assay [3] is nasopharyngeal carcinoma cell CNE-2. Description: MTT anti-tumor experiment in vitro, inhibition of nasopharyngeal carcinoma cell CNE-2. The method, then:
(§1) Experiment 1, anti-tumor experiment of MTT in vitro
(§2) F1, 0.25% trypsin was added to nasopharyngeal carcinoma cell CNE-1 in the logarithmic growth phase for cell dissociation until adherent cells were failed off. Cell suspension containing 2×10^4 nasopharyngeal carcinoma cells CNE-1 per mL was prepared.
(§3) F2, a 96-well plate was taken, one row of the 96-well plate was set as a blank group, 9 rows were set as the experimental group 1, one row was set as the experimental group 2, and one row was set as the negative control group, wherein 6 wells in the middle of each row were used for the experiment and was added of 100 μL of RPMI-1640 medium, wherein the medium of negative control group contained 1% DMSO.
(§4) F3, 100 μL of cell suspension was added to each well of the blank group, the experimental group 1, the experimental group 2, and the negative control group. Then, the 96-well plate was placed in an incubator at 37 degree Celsius, 5% CO2, and 95% humidity, and cultured in the incubator for 12 hours. 100 μL phenylbenzofuran compound (phenylbenzofuran compound of embodiment 3) with a concentration was added to wells of each row of 9 rows in the experimental group 1, ie, 10 μg/mL, 20 μg/mL, 30 μg/mL, 40 μg/mL, 50 μg/mL, 60 μg/mL, 70 μg/mL, 80 μg/mL, and 90 μg/mL, wherein the concentration of phenylbenzofuran compound of wells in the same row was equal. As a parallel experiment, cisplatin (80 μg/mL, 100 μL) was added to wells of a row in the experimental group 2. Then, the 96-well plate was placed in an incubator at 37 degree Celsius, 5% CO2, and 95% humidity, and cultured in the incubator for 48 hours. MTT (5 mg/mL, 20 μL) was added to each well. Then, the 96-well plate was placed in an incubator at 37 degree Celsius, 5% CO2, and 95% humidity, and cultured in the incubator for 4 hours. The supernatant as removed by a pipette tip, 150 μL of DMSO was added, and the mixture was shaken for 10 minutes in a micro shaker to cause complete dissolution of crystal. The OD value of each well was measured at a wavelength of 570 nm by a microplate reader, and the IC50 value was calculated. That is, the concentration when the inhibition rate of the cells reached 50% was the IC50 value.
Inhibition experiment of nasopharyngeal carcinoma cell CNE-2
The experimental procedure of the inhibition experiment of nasopharyngeal carcinoma cell CNE-2 was the same as that of the inhibition experiment of nasopharyngeal carcinoma cell CNE-1, except that the nasopharyngeal carcinoma cell CNE-1 was replaced with the nasopharyngeal carcinoma cell CNE-2.

Assay [4] deals with nasopharyngeal carcinoma cell CNE-1. Briefly: MTT anti-tumor experiment in vitro, inhibition of nasopharyngeal carcinoma cell CNE-1. The method, then: as §1
Inhibition experiment of nasopharyngeal carcinoma cell CNE-1
as §2, §3, §4
Proliferation rate of CNE-1 cell=(average of experimental group-average of blank control group)/(average of negative control group-average of blank control group)×100%.
Inhibition rate of CNE-1 cell=[…] of CNE-1 cell.

In brackets after ≈: the same amount, converted by molar mass.

`Oc1ccc(-c2cc3cc4c(cc3o2)OCO4)c(O)c1` [Phenylbenzofuran compound]: the inhibition (as a rule, the percentage by which the read-out fell short of the control) at 100 µg/mL in assay [1] came out at 98.64 ± 0.22%; in assay [2], 97.41 ± 0.02%. Further, the inhibition at 10 µg/mL in assay [3] (Homo sapiens, CNE-2, 10 μg/mL, 48 hours, MTT, read-out: Inhibition rate of nasopharyngeal carcinoma cells (%) CNE-2) is 28.4 ± 0.36%; in assay [4] (10 μg/mL, 48 hours, MTT, read-out: Inhibition rate of nasopharyngeal carcinoma cells (%) CNE-1) it was 25 ± 0.07%. Also, the inhibition at 20 µg/mL in assay [3] (Homo sapiens, CNE-2, 20 μg/mL, 48 hours, MTT, read-out: Inhibition rate of nasopharyngeal carcinoma cells (%) CNE-2) came out at 43.61 ± 0.29%; in assay [4] (20 μg/mL, 48 hours, MTT, read-out: Inhibition rate of nasopharyngeal carcinoma cells (%) CNE-1), 37.57 ± 0.03%. The inhibition at 30 µg/mL in assay [3] (Homo sapiens, CNE-2, 30 μg/mL, 48 hours, MTT, read-out: Inhibition rate of nasopharyngeal carcinoma cells (%) CNE-2) was found to be 48.5 ± 0.6%; in assay [4] (30 μg/mL, 48 hours, MTT, read-out: Inhibition rate of nasopharyngeal carcinoma cells (%) CNE-1), 45.52 ± 0.07%. Also, the inhibition at 40 µg/mL in assay [3] (Homo sapiens, CNE-2, 40 μg/mL, 48 hours, MTT, read-out: Inhibition rate of nasopharyngeal carcinoma cells (%) CNE-2) came to 75.18 ± 0.09%; in assay [4] (40 μg/mL, 48 hours, MTT, read-out: Inhibition rate of nasopharyngeal carcinoma cells (%) CNE-1) it was 60.37 ± 0.06%. Further, the inhibition at 50 µg/mL in assay [3] (Homo sapiens, CNE-2, 50 μg/mL, 48 hours, MTT, read-out: Inhibition rate of nasopharyngeal carcinoma cells (%) CNE-2) amounted to 84.42 ± 0.44%; in assay [4] (50 μg/mL, 48 hours, MTT, read-out: Inhibition rate of nasopharyngeal carcinoma cells (%) CNE-1), 68.5 ± 0.09%. Besides, the inhibition at 60 µg/mL in assay [3] (Homo sapiens, CNE-2, 60 μg/mL, 48 hours, MTT, read-out: Inhibition rate of nasopharyngeal carcinoma cells (%) CNE-2) was found to be 95.13 ± 0.22%; in assay [4] (60 μg/mL, 48 hours, MTT, read-out: Inhibition rate of nasopharyngeal carcinoma cells (%) CNE-1), 75.01 ± 0.13%. Also, the inhibition at 70 µg/mL in assay [3] (Homo sapiens, CNE-2, 70 μg/mL, 48 hours, MTT, read-out: Inhibition rate of nasopharyngeal carcinoma cells (%) CNE-2) amounted to 97.27 ± 0.6%; in assay [4] (70 μg/mL, 48 hours, MTT, read-out: Inhibition rate of nasopharyngeal carcinoma cells (%) CNE-1) it was 85.83 ± 0.06%. In addition, the inhibition at 80 µg/mL in assay [3] (Homo sapiens, CNE-2, 80 μg/mL, 48 hours, MTT, read-out: Inhibition rate of nasopharyngeal carcinoma cells (%) CNE-2) is 98.78 ± 0.09%; in assay [4] (80 μg/mL, 48 hours, MTT, read-out: Inhibition rate of nasopharyngeal carcinoma cells (%) CNE-1), 97.02 ± 0.11%. In addition, the inhibition at 90 µg/mL was 98.82 ± 0.44% in assay [3] (Homo sapiens, CNE-2, 90 μg/mL, 48 hours, MTT, read-out: Inhibition rate of nasopharyngeal carcinoma cells (%) CNE-2) and 97.81 ± 0.06% in assay [4] (90 μg/mL, 48 hours, MTT, read-out: Inhibition rate of nasopharyngeal carcinoma cells (%) CNE-1). For the same compound, the IC50 amounted to 15 µg/mL (≈ 55.5 µM) in assay [3] (Homo sapiens, CNE-2, 48 hours, read-out: concentration at which the inhibition rate reaches half inhibition growth effect) and 20 µg/mL (≈ 74 µM) in assay [4] (CNE-1, 48 hours, read-out: concentration at which the inhibition rate reaches half inhibition growth effect).
For the compound `N.N.[Cl][Pt][Cl]` [Cisplatin, cisplatin, reference compound], in assay [3] (80 μg/mL, 48 hours, MTT), the “Inhibition rate of nasopharyngeal carcinoma cells (%) CNE-2” value worked out at 97.37 ± 0.49%. For the same compound, the “Inhibition rate of nasopharyngeal carcinoma cells (%) CNE-1” value in assay [4] (80 μg/mL, 48 hours, MTT) is 94.21 ± 0.18%.

The values are drawn from patent US11208419B2, “Phenylbenzofuran compound, preparation method therefor, composition containing the same and medical application thereof” (Guangxi Botanical Garden of Medicinal Plants, priority 2018, dated 2021).
